In US8530648B2, “Diaza-spiro[5.5]undecanes” (Novartis AG, priority 2009, dated 2013) one finds Kd, Ki and inhibition data, which are given here for 23 molecules.

In test [1] the target is T1, hOx2R (Homo sapiens (Human), UniProt O43614). The test is described as follows: Radioligand binding assay, [3H]-SB649868, hOx2R. The note with it: radioligand [3H]-SB649868, competition. Here is the method: (§1) For crude cell membrane preparations, cells (CHO, Chinese hamster ovary or HEK, human embryonic kidney) expressing human orexin 1 or human orexin 2 receptors, were washed with HEPES (10 mM, pH 7.5), scraped off the culture plates with the same buffer, and centrifuged at 4° C. for 5 min at 2500×g. The cell pellet was either stored at −80° C. or used directly. Before the experiments, cell membranes were re-suspended in binding assay buffer (10 mM HEPES, 0.5% (w/v) bovine serum albumin, pH 7.5) by homogenisation with a Polytron homogeniser at 50 Hz for 20 s. Cell membranes were also used as made available by commercial providers.
(§2) Bound radioactivity was measured, and data were analysed with the program XLFIT or Graphpad Prism. Protein concentration was determined according to the Bradford/BioRad Protein Assay Kit.
(§3) In competition experiments, cell homogenates (150 μl) were incubated in assay buffer (10 mM HEPES, pH 7.5, 0.5% (w/v) bovine serum albumin, 5 mM MgCl2, 1 mM CaCl2, and tween 0.05%) for 1 h at room temperature with about 1 nM of the radioligand [^3H]-SB649868, 66 Ci/mmole, 50 μl), and with various concentrations of compounds of the invention (50 μl) in triplicates; non-specific binding was determined in the presence of almorexant (10 μM).

Test [2] deals with T2, hOx1R (Homo sapiens (Human), UniProt O43613). The test is described as follows: Radioligand binding assay, [3H]-SB649868, hOx1R. The note with it: radioligand [3H]-SB649868, competition. Here is the method: as §1, §2, §3
The target of test [3] is T2, hOx1R. The test can be described thus: Calcium accumulation in cells (FLIPR), hOx1R. The test is classed as cell-based. To be noted: for Ki: inhibition of orexin A induced calcium accumulation, Cheng and Prusoff correction. In outline:
(§4)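 Cells expressing human orexin 1 or 2 receptor, serum-deprived overnight, loaded with Fluo-4-AM (2 μM) plus 0.1 mM probenecid, pH 7.4 HEPES buffer with 1% BSA.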

The target of test [4] is T1, hOx2R. The test can be described thus: Calcium accumulation in cells (FLIPR), hOx2R. The note with it: inhibition of orexin A induced calcium accumulation, Cheng and Prusoff correction. The class given is cell-based. In outline:
as §4

Bounds are passed on as bounds.

T1 sequence (O43614 whole entry): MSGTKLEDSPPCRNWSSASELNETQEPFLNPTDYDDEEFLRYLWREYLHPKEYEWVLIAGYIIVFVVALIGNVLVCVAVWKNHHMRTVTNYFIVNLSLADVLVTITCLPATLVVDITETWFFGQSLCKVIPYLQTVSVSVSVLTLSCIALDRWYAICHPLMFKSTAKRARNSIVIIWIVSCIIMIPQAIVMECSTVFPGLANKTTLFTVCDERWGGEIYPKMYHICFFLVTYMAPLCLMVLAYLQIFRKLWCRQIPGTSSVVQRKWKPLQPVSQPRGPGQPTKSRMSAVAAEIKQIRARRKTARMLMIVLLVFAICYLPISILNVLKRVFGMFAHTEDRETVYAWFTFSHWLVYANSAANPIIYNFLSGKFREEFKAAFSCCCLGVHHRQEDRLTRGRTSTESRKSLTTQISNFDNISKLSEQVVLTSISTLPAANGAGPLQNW
T2 sequence (O43613 whole entry): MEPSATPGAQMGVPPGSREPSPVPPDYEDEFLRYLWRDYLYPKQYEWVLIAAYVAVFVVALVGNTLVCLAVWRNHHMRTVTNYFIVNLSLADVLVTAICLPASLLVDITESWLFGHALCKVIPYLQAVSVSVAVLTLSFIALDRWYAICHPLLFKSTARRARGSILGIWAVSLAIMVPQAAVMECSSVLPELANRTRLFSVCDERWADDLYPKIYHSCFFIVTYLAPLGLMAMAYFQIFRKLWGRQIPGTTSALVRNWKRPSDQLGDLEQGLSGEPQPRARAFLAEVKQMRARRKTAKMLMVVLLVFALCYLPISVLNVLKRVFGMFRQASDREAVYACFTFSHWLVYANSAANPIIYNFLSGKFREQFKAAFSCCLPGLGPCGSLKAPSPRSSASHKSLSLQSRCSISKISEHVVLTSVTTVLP

`O=C1N(Cc2cccc3nonc23)CCCC12CCN(c1cnc3ccccc3n1)CC2` [Example 77, 2-(benzo[c][1,2,5]oxadiazol-4-ylmethyl)-9-(quinoxalin-2-yl)-2,9-diazaspiro[5.5]undecan-1-one]: the values for the Kd on hOx2R [1] and at hOx1R [2] were 1460 nM and 2330 nM, respectively. For the same molecule, the Ki turned out to be 1150 nM at hOx1R [3] and 98 nM on hOx2R [4].
In the same order, the values of `Cc1cc(N2CCC3(CCCN(Cc4c[nH]c5ccccc45)C3=O)CC2)nc2ccccc12` [Example 164, 2-((1H-indol-3-yl)methyl)-9-(4-methylquinolin-2-yl)-2,9-diazaspiro[5.5]undecan-1-one] are 12 nM, 90 nM, 115 nM and 14 nM.
In the same order, the values of `O=C1N(Cc2cccc(-c3ncccn3)c2)CCCC12CCN(c1cnc3ccccc3n1)CC2` [Example 61, 2-(3-(pyrimidin-2-yl)benzyl)-9-(quinoxalin-2-yl)-2,9-diazaspiro[5.5]undecan-1-one] are 395 nM, 2050 nM, 373 nM and 62 nM.
In the same order, the values of `O=C1N(Cc2ccccc2-c2ccco2)CCCC12CCN(c1cnc3ccccc3n1)CC2` [Example 150, 2-(2-(furan-2-yl)benzyl)-9-(quinoxalin-2-yl)-2,9-diazaspiro[5.5]undecan-1-one] are 185 nM, 2100 nM, 744 nM and 45 nM.
For `O=C1N(Cc2c[nH]c3ccccc23)CCCC12CCN(c1ncc3ccccc3n1)CC2` [Example 169, 2-((1H-indol-3-yl)methyl)-9-(quinazolin-2-yl)-2,9-diazaspiro[5.5]undecan-1-one], the Kd at hOx2R [1] turned out to be 123 nM; at hOx1R [2], 926 nM. Besides, the Ki came out at 966 nM at hOx1R [3] and 70 nM on hOx2R [4].
The corresponding values for `Cc1cnc(-c2cccc(CN3CCCC4(CCN(c5cnc6ccccc6n5)CC4)C3=O)c2)o1` [Example 147, 2-(3-(5-methyloxazol-2-yl)benzyl)-9-(quinoxalin-2-yl)-2,9-diazaspiro[5.5]undecan-1-one] are 63 nM, 228 nM, 94 nM and 7 nM.
With `COc1cccc(-n2cncc2CN2CCCC3(CCN(c4cnc5ccccc5n4)CC3)C2=O)c1` [Example 111, 2-((1-(3-methoxyphenyl)-1H-imidazol-5-yl)methyl)-9-(quinoxalin-2-yl)-2,9-diazaspiro[5.5]undecan-1-one], the Kd at hOx2R [1] was found to be 559 nM; at hOx1R [2] it was 3820 nM. In addition, the Ki is 1290 nM on hOx1R [3] and 85 nM at hOx2R [4].
`O=C1N(Cc2cccc3c2OCCO3)CCCC12CCN(c1nccc3occc13)CC2` [Example 82, 2-((2,3-dihydrobenzo[b][1,4]dioxin-5-yl)methyl)-9-(furo[3,2-c]pyridin-4-yl)-2,9-diazaspiro[5.5]undecan-1-one]: the Kd on hOx2R [1] came out at 624 nM; at hOx1R [2], 5090 nM. In addition, the inhibition at 10 µM at hOx1R [3] (measured at a concentration of 10 μM of compound) was 33%. For the same molecule, on hOx2R [4], the Ki amounted to 81 nM.
Regarding `O=C1N(Cc2ccccc2-c2ncco2)CCCC12CCN(c1cnc3ccccc3n1)CC2` [Example 149, 2-(2-(oxazol-2-yl)benzyl)-9-(quinoxalin-2-yl)-2,9-diazaspiro[5.5]undecan-1-one], the results for the Kd on hOx2R [1] and at hOx1R [2] were 268 nM and 3450 nM, respectively. Moreover, the Ki at hOx1R [3] worked out at 981 nM; on hOx2R [4], 19 nM.
Turning to `Cn1cc(CN2CCCC3(CCN(c4cnc5ccccc5n4)CC3)C2=O)c2ccccc21` [Example 130, 2-((1-methyl-1H-indol-3-yl)methyl)-9-(quinoxalin-2-yl)-2,9-diazaspiro[5.5]undecan-1-one], the Kd on hOx2R [1] worked out at 134 nM; at hOx1R [2], 1280 nM. For the same molecule, the Ki on hOx1R [3] turned out to be 422 nM; at hOx2R [4], 29 nM.
The corresponding values for `O=C1N(Cc2c[nH]c3ccccc23)CCCC12CCN(c1cc3nccnc3cn1)CC2` [Example 167, 2-((1H-indol-3-yl)methyl)-9-(pyrido[4,3-b]pyrazin-7-yl)-2,9-diazaspiro[5.5]undecan-1-one] are 152 nM, 1670 nM, 665 nM and 81 nM.
Consider `Cc1nc(CN2CCCC3(CCN(c4cnc5ccccc5n4)CC3)C2=O)c(-c2cccc(F)c2)s1` [Example 73, 2-((5-(3-fluorophenyl)-2-methylthiazol-4-yl)methyl)-9-(quinoxalin-2-yl)-2,9-diazaspiro[5.5]undecan-1-one], for which the Kd on hOx2R [1] came out at 219 nM; on hOx1R [2], 1150 nM. Further, the Ki worked out at 438 nM on hOx1R [3] and 55 nM on hOx2R [4].
In the same order, the values of `O=C1N(Cc2ncoc2-c2ccccc2)CCCC12CCN(c1cnc3ccccc3n1)CC2` [Example 95, 2-((5-phenyloxazol-4-yl)methyl)-9-(quinoxalin-2-yl)-2,9-diazaspiro[5.5]undecan-1-one] are 36 nM, 429 nM, 223 nM and 8 nM.
As for `Cn1cc(CN2C(=O)CCCC23CCN(c2cnc4ccccc4n2)CC3)c2cccnc21` [Example 143, 1-((1-methyl-1H-pyrrolo[2,3-b]pyridin-3-yl)methyl)-9-(quinoxalin-2-yl)-1,9-diazaspiro[5.5]undecan-2-one], the results for the Kd at hOx2R [1] and on hOx1R [2] were 50 nM and 307 nM, respectively. In addition, the values for the Ki at hOx1R [3] and on hOx2R [4] were 747 nM and 39 nM, respectively.
In the same order, the values of `Cc1ccc(-n2nccn2)cc1CN1CCCC2(CCN(c3cnc4ccccc4n3)CC2)C1=O` [Example 128, 2-(2-methyl-5-(2H-1,2,3-triazol-2-yl)benzyl)-9-(quinoxalin-2-yl)-2,9-diazaspiro[5.5]undecan-1-one] are 160 nM, above 10000 nM, 967 nM and 73 nM.
The corresponding values for `Cc1ccc2oc(N3CCC4(CCCC(=O)N4Cc4cccc5[nH]ccc45)CC3)nc2c1` [Example 140, 1-((1H-indol-4-yl)methyl)-9-(5-methylbenzo[d]oxazol-2-yl)-1,9-diazaspiro[5.5]undecan-2-one] are 379 nM, 1580 nM, 662 nM and 81 nM.
In the same order, the values of `O=C1N(Cc2c[nH]c3ccccc23)CCCC12CCN(c1nc3ccccc3[nH]1)CC2` [Example 152, 2-((1H-indol-3-yl)methyl)-9-(1H-benzo[d]imidazol-2-yl)-2,9-diazaspiro[5.5]undecan-1-one] are 84 nM, 939 nM, 1560 nM and 69 nM.
For `O=C1N(Cc2cccc(-n3nccn3)c2)CCCC12CCN(c1cnc3ccccc3n1)CC2` [Example 47, 2-(3-(2H-1,2,3-triazol-2-yl)benzyl)-9-(quinoxalin-2-yl)-2,9-diazaspiro[5.5]undecan-1-one], the figures for the Kd on hOx2R [1] and on hOx1R [2] were 34 nM and 318 nM, respectively. Further, the Ki on hOx1R [3] was found to be 159 nM; at hOx2R [4] it was 13 nM.
In the same order, the values of `Cn1ccc2c(CN3C(=O)CCCC34CCN(c3cnc5ccccc5n3)CC4)cccc21` [Example 44, 1-((1-methyl-1H-indol-4-yl)methyl)-9-(quinoxalin-2-yl)-1,9-diazaspiro[5.5]undecan-2-one] are 125 nM, 56 nM, 64 nM and 48 nM.
In the same order, the values of `O=C1N(Cc2c[nH]c3ccccc23)CCCC12CCN(c1nccc3occc13)CC2` [Example 156, 2-((1H-indol-3-yl)methyl)-9-(furo[3,2-c]pyridin-4-yl)-2,9-diazaspiro[5.5]undecan-1-one] are 139 nM, 1020 nM, 623 nM and 23 nM.
The corresponding values for `O=C1N(Cc2cccc(-n3cccn3)c2)CCCC12CCN(c1cnc3ccccc3n1)CC2` [Example 60, 2-(3-(1H-pyrazol-1-yl)benzyl)-9-(quinoxalin-2-yl)-2,9-diazaspiro[5.5]undecan-1-one] are 191 nM, 728 nM, 391 nM and 49 nM.
For the molecule `O=C1N(Cc2n[nH]c3ccccc23)CCCC12CCN(c1cnc3ccccc3n1)CC2` [Example 129, 2-((1H-indazol-3-yl)methyl)-9-(quinoxalin-2-yl)-2,9-diazaspiro[5.5]undecan-1-one], the dissociation constant Kd on hOx2R [1] is 25 nM; at hOx1R [2], 105 nM. For the same molecule, the values for the inhibitory constant (Ki) at hOx1R [3] and on hOx2R [4] were 126 nM and 9 nM, respectively.
Regarding `O=C1N(Cc2cccc3nsnc23)CCCC12CCN(c1cnc3ccccc3n1)CC2` [Example 113, 2-(benzo[c][1,2,5]thiadiazol-4-ylmethyl)-9-(quinoxalin-2-yl)-2,9-diazaspiro[5.5]undecan-1-one], the Kd on hOx2R [1] was found to be 630 nM; on hOx1R [2] it was 3500 nM. The Ki on hOx1R [3] came out at 1360 nM; on hOx2R [4], 82 nM.

Usually Kd stands for the concentration at which binding is half-saturated. Read a high Kd as weaker binding. The term Ki denotes the dissociation constant of the complex between target and ligand, obtained from inhibition or displacement. By inhibition is commonly meant the drop in the measured response relative to a control, in per cent.
